Reference: publication PMC5537602, “TRPA1 channel mediates organophosphate-induced delayed neuropathy” (Cell Discovery, 2017)
Entries after “also recorded” stand apart in the source; their conditions may differ.

What was measured:
[1] = molecular target: mTRPA1 (Mus musculus, UniProt Q8BLA8); assay: Whole-cell patch-clamp, HEK293 cells expressing mTRPA1; assay type: cell-based; design: expressed in transfected cells; host or cells: HEK293
Protocol: (§1) Human embryonic kidney 293 (HEK293) cells were cultured in DMEM containing 10% (vol/vol) heat-inactivated fetal bovine serum, 100 units ml^−1 penicillin–streptomycin and 2 mM L-glutamine at 37 °C in a humidity-controlled sterile incubator with 5% CO2. All cell culture reagents were purchased from Life Technologies. HEK293 cells were transfected transiently with the corresponding plasmids using lipofectamine 2000 (Life Technologies). Transfection efficiency was monitored by co-transfecting EGFP plasmid which codes for the enhanced green fluorescent protein. Electrophysiological recordings were performed between 24 and 36 h after transfection.
(§2) Whole-cell patch-clamp recordings in DRG neurons (small diameter, […]) and HEK293 cells were operated at room temperature (23–25 °C) using EPC-10 amplifier and Patch Master Software (HEKA). […] Currents were sampled at 10 kHz and low-pass filtered at 2.9 kHz. The internal solution was as follows (in mM): 140 CsCl, 10 HEPES, 5 EGTA, 0.1 CaCl2 and 1 MgCl2, with pH adjusted to 7.2 by CsOH and osmolarity 295–300 mOsm. The calcium-free external solution contained (in mM) 140 NaCl, 5 KCl, 0.5 EGTA, 1 MgCl2, 10 Glucose and 10 HEPES, with pH adjusted to 7.4 by NaOH and osmolarity 300–310 mOsm. The 0.5 mM EGTA was replaced by 2 mM CaCl2 for the recordings in DRG neurons. TRPA1 currents development was monitored with repetitive injections of 300 ms duration voltage ramps from −100 to +100 mV every 2 s and the holding potential was set to 0 mV for 50 ms, existing in both sides of the voltage ramp. To record inward currents in DRG neurons, we conducted voltage clamp at holding membrane potential of −70 mV. Solutions were switched using a gravity-fed continuous focal perfusion system.

[2] = test system: mice; assay: Behavioral testing of mice (paw-licking time after intraplantar injection); assay type: in vivo, mouse
Protocol: The chosen mice were allowed to acclimate to the experimental environment for at least 2 h before testing. Intraplantar injection of 5% AITC and 30% malathion (10 μl) was achieved using separate injectors. Spontaneous pain evoked by the compounds was assessed by measuring the time (s) the mice spent on licking. For the HC030031 groups, 200 mg kg^−1 HC030031 was intragastrically administered, and then the test was conducted after 1 h. The testing phase was divided into two parts: 0–10 min and 11–60 min.

[3] = test system: mouse DRG neurons; assay: Whole-cell patch-clamp of small-diameter DRG neurons; assay type: cell-based
Protocol: DRG neurons were isolated from young C57 BL/6 mice (4–5 weeks). The sections of thoracic and lumbar DRG neurons were rapidly isolated in calcium and magnesium-free PBS with low temperature conditions (ice-bath environment). The isolated tissues were cut into pieces with scissor and incubated for 30 min with 0.1% collagenase and 0.025% trypsin which were diluted by DMEM-F12 at 37 °C. After digestion, neurons were gently dissociated using Pasteur pipettes and then plated onto poly-D-lysine pre-coated glass cover slips. DRG neurons were cultured for 24 h before use.
as §2

[4] = test system: mice; assay: Transmission electron microscopy of local nerve fibers in mice; assay type: in vivo, mouse
Protocol: For mice, subcutaneous tissue from the site of exposure was removed and fixed by immediate immersion in ice-cold 2.5% glutaraldehyde. Subsequently, the samples were post-fixed in 1% OsO4 for 1 h, dehydrated with an ethanol series and embedded in epon resin. Sixty-nanometer ultra-thin sections were double stained with lead citrate and uranyl acetate and examined using an electron microscopy.

[5] = test system: hens; assay type: in vivo, hen; details: hens
Protocol: The chosen adult Hyline Brown hens were raised individually in stainless steel wire cages. After 7 days of acclimatization, the chosen hens were randomly divided into groups (n=6–10 for each group). The hens in the delayed neuropathy groups were administered a single dose of 750 mg kg^−1 TOCP and repeated doses of 75 mg kg^−1 malathion by gavage. TOCP and malathion were dissolved in corn oil and administered at 0.65 ml kg^−1. In the HC030031 treatment groups, 100 mg kg^−1 HC030031 was administered by gavage daily beginning at day 0 or day 11. All hens were examined daily for signs of delayed neurotoxicity. A five-point graded scale was used to describe the clinical symptoms of delayed neuropathy, with 0 indicating normal ambulation; (1) suspected ataxia (lack of strength in the legs and tottering); (2) mild ataxia (slow, clumsy and unsteady gait); (3) gross ataxia (waddling gait and staggering and falling despite being active); (4) mild paralysis (typical paralytic posture and lame appearance); and (5) complete paralysis (unable to maintain posture, stand up or move at all), as described previously.

[6] = molecular target: T1, rTRPA1 (Rattus norvegicus, UniProt Q6RI86); assay: Whole-cell patch-clamp, HEK293 cells expressing rTRPA1; assay type: cell-based
T1 construct: expressed in transfected cells; host or cells: HEK293, transient
T1 sequence (Q6RI86 whole entry): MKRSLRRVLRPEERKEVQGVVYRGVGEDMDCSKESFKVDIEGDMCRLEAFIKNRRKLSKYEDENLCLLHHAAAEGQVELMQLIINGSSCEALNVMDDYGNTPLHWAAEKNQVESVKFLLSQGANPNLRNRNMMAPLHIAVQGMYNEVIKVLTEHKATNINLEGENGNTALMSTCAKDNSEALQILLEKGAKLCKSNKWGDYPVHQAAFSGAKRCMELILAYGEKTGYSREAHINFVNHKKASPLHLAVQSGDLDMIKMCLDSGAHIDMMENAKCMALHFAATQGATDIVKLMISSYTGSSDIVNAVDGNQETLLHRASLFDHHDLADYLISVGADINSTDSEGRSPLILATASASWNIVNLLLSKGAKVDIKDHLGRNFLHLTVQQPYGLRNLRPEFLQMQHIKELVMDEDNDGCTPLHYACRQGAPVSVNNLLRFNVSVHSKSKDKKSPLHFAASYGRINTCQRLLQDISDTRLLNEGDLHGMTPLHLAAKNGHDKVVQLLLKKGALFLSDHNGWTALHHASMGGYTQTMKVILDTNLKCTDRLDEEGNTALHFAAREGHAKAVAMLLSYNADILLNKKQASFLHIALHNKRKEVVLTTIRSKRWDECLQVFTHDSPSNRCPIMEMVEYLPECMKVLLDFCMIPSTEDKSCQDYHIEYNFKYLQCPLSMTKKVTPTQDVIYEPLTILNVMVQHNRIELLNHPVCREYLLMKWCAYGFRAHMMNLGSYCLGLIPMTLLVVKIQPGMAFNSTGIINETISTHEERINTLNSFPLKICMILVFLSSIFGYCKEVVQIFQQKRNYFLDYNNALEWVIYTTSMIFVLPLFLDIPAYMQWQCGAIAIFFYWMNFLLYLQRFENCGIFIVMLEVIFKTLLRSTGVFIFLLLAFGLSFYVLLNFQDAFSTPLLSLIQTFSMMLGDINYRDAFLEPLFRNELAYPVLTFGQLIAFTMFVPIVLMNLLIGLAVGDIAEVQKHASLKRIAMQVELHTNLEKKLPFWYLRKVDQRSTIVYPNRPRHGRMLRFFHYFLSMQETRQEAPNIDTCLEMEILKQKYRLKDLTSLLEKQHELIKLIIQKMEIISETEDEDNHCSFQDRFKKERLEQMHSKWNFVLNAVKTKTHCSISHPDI
Protocol: as §1, §2

[7] = molecular target: T2, hTRPA1 (Homo sapiens, UniProt O75762); assay: cell-based; assay type: cell-based
T2 construct: expressed in transfected cells; host or cells: HEK293, transient, EGFP plasmid co-transfected
T2 sequence (O75762 whole entry): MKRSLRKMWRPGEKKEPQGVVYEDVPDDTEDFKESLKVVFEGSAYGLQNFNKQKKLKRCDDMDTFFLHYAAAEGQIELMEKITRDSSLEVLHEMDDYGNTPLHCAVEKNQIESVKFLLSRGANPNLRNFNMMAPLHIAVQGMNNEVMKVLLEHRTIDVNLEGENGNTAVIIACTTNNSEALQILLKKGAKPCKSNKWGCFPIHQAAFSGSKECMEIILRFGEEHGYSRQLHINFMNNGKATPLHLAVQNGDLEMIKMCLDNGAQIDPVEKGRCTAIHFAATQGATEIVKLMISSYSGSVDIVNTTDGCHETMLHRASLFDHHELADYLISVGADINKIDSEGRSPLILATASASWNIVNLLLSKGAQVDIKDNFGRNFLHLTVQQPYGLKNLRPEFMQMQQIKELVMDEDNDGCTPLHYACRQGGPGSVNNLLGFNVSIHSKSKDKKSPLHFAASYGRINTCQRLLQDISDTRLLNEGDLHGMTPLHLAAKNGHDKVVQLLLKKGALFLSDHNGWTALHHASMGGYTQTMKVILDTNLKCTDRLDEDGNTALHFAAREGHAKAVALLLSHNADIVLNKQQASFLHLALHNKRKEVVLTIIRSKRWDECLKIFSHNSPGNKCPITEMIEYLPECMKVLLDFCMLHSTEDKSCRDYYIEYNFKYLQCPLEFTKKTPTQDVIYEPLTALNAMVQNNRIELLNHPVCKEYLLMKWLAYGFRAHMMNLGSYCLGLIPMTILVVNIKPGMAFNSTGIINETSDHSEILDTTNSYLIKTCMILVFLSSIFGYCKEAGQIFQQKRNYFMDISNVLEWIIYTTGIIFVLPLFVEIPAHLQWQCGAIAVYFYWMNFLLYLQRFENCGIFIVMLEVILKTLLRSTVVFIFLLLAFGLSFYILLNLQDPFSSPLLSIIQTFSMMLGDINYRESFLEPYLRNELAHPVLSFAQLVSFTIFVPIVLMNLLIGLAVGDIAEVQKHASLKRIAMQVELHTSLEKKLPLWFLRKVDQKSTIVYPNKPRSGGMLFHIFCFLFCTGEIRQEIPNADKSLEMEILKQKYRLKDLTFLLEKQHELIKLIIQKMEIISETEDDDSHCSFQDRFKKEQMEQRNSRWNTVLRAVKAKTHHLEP
Protocol: as §1, §2

[8] = 30 μM, calcium-free external solution
[9] = 10 μM HC030031, malathion or TOCP as agonist
[10] = HC030031 200 mg kg−1 per oral, 1 h before test

mTRPA1, sequence (Q8BLA8 whole entry): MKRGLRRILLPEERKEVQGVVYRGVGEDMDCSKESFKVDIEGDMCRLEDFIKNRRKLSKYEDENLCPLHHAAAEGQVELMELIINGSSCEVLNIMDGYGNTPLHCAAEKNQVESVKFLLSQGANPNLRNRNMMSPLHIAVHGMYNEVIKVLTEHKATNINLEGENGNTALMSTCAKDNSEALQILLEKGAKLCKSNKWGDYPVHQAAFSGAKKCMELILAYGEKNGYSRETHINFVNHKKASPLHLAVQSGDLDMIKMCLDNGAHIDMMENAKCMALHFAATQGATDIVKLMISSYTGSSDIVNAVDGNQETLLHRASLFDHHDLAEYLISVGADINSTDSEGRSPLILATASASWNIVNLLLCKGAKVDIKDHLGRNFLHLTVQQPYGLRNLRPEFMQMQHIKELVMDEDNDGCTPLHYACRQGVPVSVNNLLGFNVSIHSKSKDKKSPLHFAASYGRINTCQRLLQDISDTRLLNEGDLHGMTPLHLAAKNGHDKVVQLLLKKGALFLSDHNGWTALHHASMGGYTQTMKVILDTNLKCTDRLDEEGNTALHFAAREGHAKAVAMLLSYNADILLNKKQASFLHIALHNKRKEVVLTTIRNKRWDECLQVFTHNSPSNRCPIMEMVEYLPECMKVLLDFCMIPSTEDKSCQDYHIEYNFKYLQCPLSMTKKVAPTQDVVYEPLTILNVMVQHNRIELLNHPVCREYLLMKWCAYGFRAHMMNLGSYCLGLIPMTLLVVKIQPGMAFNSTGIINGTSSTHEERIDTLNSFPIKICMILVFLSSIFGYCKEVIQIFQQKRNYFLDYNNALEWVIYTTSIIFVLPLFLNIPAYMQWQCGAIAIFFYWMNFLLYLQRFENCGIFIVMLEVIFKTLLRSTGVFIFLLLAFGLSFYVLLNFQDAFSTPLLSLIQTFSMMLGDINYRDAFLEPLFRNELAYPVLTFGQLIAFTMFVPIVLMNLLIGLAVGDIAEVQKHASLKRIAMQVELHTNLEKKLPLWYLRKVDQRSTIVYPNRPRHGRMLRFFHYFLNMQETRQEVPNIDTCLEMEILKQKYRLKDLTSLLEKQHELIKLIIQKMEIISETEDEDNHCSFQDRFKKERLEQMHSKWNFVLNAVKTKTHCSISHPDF

Row | Compound | activation of mTRPA1 whole-cell currents [1, 8] | nociception-like behavior in Trpa1−/− mice ([2]; Trpa1−/− mice, 30% malathion intraplantar) | nocifensive behavior (paw-licking) after plantar injection ([2]; WT mice, AITC 10 μl 5%, malathion 10 μl 30%, intraplantar) | action potential firing in WT small-diameter neurons ([3]; 100 μM) | currents in neurons from Trpa1−/− mice ([3]; Trpa1−/− neurons, 17/17) | neurons with robust inward currents ([3]; small-diameter neurons from WT mice, 7/18) | nerve fiber damage around the injection site (TEM) ([4]; WT mice, plantar injection, 5% AITC or 30% malathion) | clinical symptoms of delayed neuropathy ([5]; malathion 75 mg kg−1 q.d. for 11 days, day 5) | activation of rTRPA1 whole-cell currents [6, 8] | activation of hTRPA1 whole-cell currents [7, 8] | EC50 ([7]; whole-cell patch-clamp) | block of agonist-elicited mTRPA1 currents [1, 9] | effect on AITC-evoked nocifensive behavior [2, 10] | effect on malathion-evoked nociception-like behavior [2, 10] | effect on AITC- or malathion-elicited action potentials ([3]; 10 μM HC030031) | inhibition of malathion-induced inward currents in DRG neurons ([3]; 10 μM HC030031) | effect on malathion-induced myelin sheath damage (TEM) ([4]; HC030031 pretreatment) | effect on clinical signs of delayed neuropathy induced by TOCP or malathion ([5]; HC030031 100 mg kg−1 daily by gavage from day 0 or day 11) | block of agonist-elicited rTRPA1 currents [6, 9] | block of agonist-elicited hTRPA1 currents [7]
1 | CCOC(=O)CC(SP(=S)(OC)OC)C(=O)OCC (stereo not drawn) [malathion, S-[1,2-bis (ethoxycarbonyl)ethyl] O, O-dimethyl phosphorodithioate] | large activation current | not observed | nociception-like behavior | bursts of action potentials | failed to induce currents | ~ 39% | damage of the myelin sheath | slow and clumsy gait | large activation current | large activation current | 14.2 ± 1.84 µM | – | – | – | – | – | – | – | – | –
2 | CC(C)c1ccc(NC(=O)Cn2cnc3c2c(=O)n(C)c(=O)n3C)cc1 [HC030031] | – | – | – | – | – | – | – | – | – | – | – | blocked | suppressed | blocked | suppressed | inhibited | significantly protected the myelin sheath | significantly alleviated | blocked | blocked; also recorded: inhibited
